According to PMC4284078 (Virology, 2014):

Assay: FTIR spectroscopy secondary structure
Format: physicochemical
Settings: 2 mM peptide in deuterated 10 mM phosphate buffer pD 5.6, 25°C, means of four separate determinations, SE ± 5% or better

Substance	% Conformation Disordered [%]	% Conformation Turn [%]	% Conformation α-Helix [%]	% Conformation β-Sheet [%]
Val Ser Phe Arg Val Gly Leu His Glu Tyr Pro Val -CON H2 [HCV1]	23.74	31.05	2.10	43.11
Arg Cys^S- Arg Phe Arg Val D-Pro Cha His Arg Tyr Arg Cys^s Arg -CON H2 (disulfide) [HCV5]	12.83	25.72	10.55	50.90
Pal-Ahx-Ahx- Arg Cys^S- Arg Phe Arg Val D-Pro Cha His Arg Tyr Arg Cys^S- Arg -CON H2 (disulfide) [HCV6]	14.40	20.39	12.34	52.87
Cys^S- Ser Phe Arg Val Gly Leu His Glu Tyr Pro Cys^s -CON H2 (disulfide) [HCV3]	12.04	21.96	11.60	54.34
